Source: PubChem BioAssay AID248 (DTP/NCI, 2004)
Where “and” joins values, the source holds several entries; their conditions need not be identical. Equal entries are not always repeated. Inconclusive results and toxic doses are left out. No stated cut-off is given here; in the data, active means T/C of 150% or more; inactive means T/C below 125%.

System: L1210 leukemia ip in BDF1 mice, survival T/C
Experiment: NCI In Vivo Anticancer Drug Screen. Data for tumor model L1210 Leukemia (intraperitoneal) in B6D2F1 (BDF1) mice
Conditions: endpoint: mean survival time, higher = longer survival
Method in brief: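 Tumor was transplanted into mice, which were then dosed with test compound or vehicle alone. Survival was recorded for each group, and the treated figure was expressed relative to the control figure.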

[1] = dose: 25.0 mg/kg/injection, schedule: Q01DX001 (ip), vehicle: saline
[2] = dose: 25.0 mg/kg/injection, schedule: Q04DX003 (ip), vehicle: saline
[3] = dose: 50.0 mg/kg/injection, schedule: Q04DX003 (ip), vehicle: saline
[4] = dose: 100.0 mg/kg/injection, schedule: Q01DX001 (ip), vehicle: saline
[5] = dose: 200.0 mg/kg/injection, schedule: Q01DX001 (ip), vehicle: saline
[6] = dose: 400.0 mg/kg/injection, schedule: Q01DX001 (ip), vehicle: saline
[7] = dose: 100.0 mg/kg/injection, schedule: Q01DX001 (ip), vehicle: carboxymethylcellulose (CMC)
[8] = dose: 200.0 mg/kg/injection, schedule: Q01DX001 (ip), vehicle: carboxymethylcellulose (CMC)
[9] = dose: 400.0 mg/kg/injection, schedule: Q01DX001 (ip), vehicle: carboxymethylcellulose (CMC)
[10] = dose: 100.0 mg/kg/injection, schedule: Q04DX003 (ip), vehicle: saline with Tween-80
[11] = dose: 200.0 mg/kg/injection, schedule: Q04DX003 (ip), vehicle: saline with Tween-80
[12] = dose: 400.0 mg/kg/injection, schedule: Q04DX003 (ip), vehicle: saline with Tween-80
[13] = dose: 100.0 mg/kg/injection, schedule: Q01DX001 (ip), vehicle: Klucel (hydroxypropylcellulose) (HPC)
[14] = dose: 100.0 mg/kg/injection, schedule: Q04DX003 (ip), vehicle: Klucel (hydroxypropylcellulose) (HPC)
[15] = dose: 200.0 mg/kg/injection, schedule: Q04DX003 (ip), vehicle: Klucel (hydroxypropylcellulose) (HPC)
[16] = dose: 400.0 mg/kg/injection, schedule: Q04DX003 (ip), vehicle: Klucel (hydroxypropylcellulose) (HPC)
[17] = dose: 50.0 mg/kg/injection, schedule: Q01DX009 (ip), vehicle: saline
[18] = dose: 100.0 mg/kg/injection, schedule: Q01DX009 (ip), vehicle: saline
[19] = dose: 100.0 mg/kg/injection, schedule: Q04DX003 (ip), vehicle: saline
[20] = dose: 200.0 mg/kg/injection, schedule: Q01DX009 (ip), vehicle: saline
[21] = dose: 200.0 mg/kg/injection, schedule: Q04DX003 (ip), vehicle: saline

Measured: T/C

CCCCCCCCCCCCNC(=O)c1ccc[n+](C)c1
inactive: dose: 6.25 mg/kg/injection, schedule: Q01DX009 (ip), vehicle: acetone 95 % of control | dose: 6.25 mg/kg/injection, schedule: Q04DX003 (ip), vehicle: saline 91 % of control | dose: 12.5 mg/kg/injection, schedule: Q01DX001 (ip), vehicle: saline 105 % of control | dose: 12.5 mg/kg/injection, schedule: Q01DX009 (ip), vehicle: acetone 98 % of control | dose: 12.5 mg/kg/injection, schedule: Q04DX003 (ip), vehicle: saline 92 % of control and 103 % of control | [1] 104 % of control | dose: 25.0 mg/kg/injection, schedule: Q01DX009 (ip), vehicle: acetone 95 % of control | [2] 94 % of control and 91 % of control | [3] 96 % of control

Cc1cc(N(CCOS(C)(=O)=O)CCOS(C)(=O)=O)ccc1C=Nc1ccccc1C(=O)O
active: dose: 40.0 mg/kg/injection, schedule: Q04DX003 (ip), vehicle: Klucel (hydroxypropylcellulose) (HPC) 153 % of control
inactive: dose: 2.5 mg/kg/injection, schedule: Q04DX003 (ip), vehicle: Klucel (hydroxypropylcellulose) (HPC) 124 % of control | dose: 5.0 mg/kg/injection, schedule: Q04DX003 (ip), vehicle: Klucel (hydroxypropylcellulose) (HPC) 113 % of control | dose: 10.0 mg/kg/injection, schedule: Q04DX003 (ip), vehicle: Klucel (hydroxypropylcellulose) (HPC) 109 % of control

C[n+]1c(O)c(C(=O)CCl)n2cc([N+](=O)[O-])ccc21
inactive: [4] 100 % of control | [5] 92 % of control | [6] 101 % of control

c1ccc2[nH]c(-c3ccc(N=Nc4ccc(-c5nc6ccccc6[nH]5)cc4)cc3)nc2c1
inactive: dose: 15.0 mg/kg/injection, schedule: Q01DX Z (ip), vehicle: other 100 % of control | dose: 30.0 mg/kg/injection, schedule: Q01DX Z (ip), vehicle: other 97 % of control | dose: 60.0 mg/kg/injection, schedule: Q01DX Z (ip), vehicle: other 105 % of control | dose: 120.0 mg/kg/injection, schedule: Q01DX Z (ip), vehicle: other 96 % of control | dose: 180.0 mg/kg/injection, schedule: Q01DX Z (ip), vehicle: carboxymethylcellulose (CMC) 108 % of control | dose: 270.0 mg/kg/injection, schedule: Q01DX Z (ip), vehicle: carboxymethylcellulose (CMC) 101 % of control

CCOC(=O)C1=CC(=O)C(C(=O)OCC)=CC1=O
inactive: [7] 98 % of control | [8] 98 % of control | [9] 104 % of control

O=[N+]([O-])c1ccc(N=C(Cl)N(c2ccccc2)c2ccccc2)cc1
inactive: [4] 101 % of control | [5] 109 % of control | [6] 109 % of control

S=P(NC1CCCCC1)(NC1CCCCC1)NC1CCCCC1
inactive: [4] 95 % of control | [10] 101 % of control | [5] 95 % of control | [11] 97 % of control | [6] 90 % of control | [12] 97 % of control

Cc1ccc(S(=O)(=O)ON=C2c3ccccc3-c3ccccc32)cc1
inactive: dose: 25.0 mg/kg/injection, schedule: Q01DX009 (ip), vehicle: Klucel (hydroxypropylcellulose) (HPC) 96 % of control | dose: 50.0 mg/kg/injection, schedule: Q01DX009 (ip), vehicle: Klucel (hydroxypropylcellulose) (HPC) 96 % of control | [13] 101 % of control | dose: 100.0 mg/kg/injection, schedule: Q01DX009 (ip), vehicle: Klucel (hydroxypropylcellulose) (HPC) 100 % of control | [14] 98 % of control | dose: 200.0 mg/kg/injection, schedule: Q01DX001 (ip), vehicle: Klucel (hydroxypropylcellulose) (HPC) 99 % of control | dose: 200.0 mg/kg/injection, schedule: Q01DX009 (ip), vehicle: Klucel (hydroxypropylcellulose) (HPC) 88 % of control and 91 % of control | [15] 93 % of control | dose: 400.0 mg/kg/injection, schedule: Q01DX001 (ip), vehicle: Klucel (hydroxypropylcellulose) (HPC) 105 % of control | [16] 103 % of control

Nc1nc(N)c(-c2ccc(Cl)c(Cl)c2)c(COc2ccc(NC(=O)c3ccc(S(=O)(=O)F)cc3)cc2Cl)n1
inactive: dose: 50.0 mg/kg/injection, schedule: Q01DX001 (ip), vehicle: Klucel (hydroxypropylcellulose) (HPC) 97 % of control | [13] 97 % of control

CCCCCCC(C)(O)CCCCOC(C)OCC (stereo not drawn)
inactive: dose: 50.0 mg/kg/injection, schedule: Q04DX002 (ip), vehicle: saline with Tween-80 95 % of control | dose: 100.0 mg/kg/injection, schedule: Q04DX002 (ip), vehicle: saline with Tween-80 95 % of control | dose: 200.0 mg/kg/injection, schedule: Q04DX002 (ip), vehicle: saline with Tween-80 88 % of control | dose: 400.0 mg/kg/injection, schedule: Q04DX002 (ip), vehicle: saline with Tween-80 95 % of control

COc1ccc(/C=N\NC(=O)CNC(=O)Nc2cccc(Cl)c2)cc1OC
inactive: dose: 50.0 mg/kg/injection, schedule: Q01DX009 (ip), vehicle: saline with Tween-80 88 % of control | dose: 100.0 mg/kg/injection, schedule: Q01DX009 (ip), vehicle: saline with Tween-80 92 % of control | dose: 200.0 mg/kg/injection, schedule: Q01DX009 (ip), vehicle: saline with Tween-80 88 % of control

O=C1NC(=O)c2cccc3cccc1c23
inactive: dose: 100.0 mg/kg/injection, schedule: Q01DX001 (ip), vehicle: saline with Tween-80 98 % of control | dose: 200.0 mg/kg/injection, schedule: Q01DX001 (ip), vehicle: saline with Tween-80 102 % of control | dose: 400.0 mg/kg/injection, schedule: Q01DX001 (ip), vehicle: saline with Tween-80 102 % of control

CCCCCCN
inactive: [1] 97 % of control | dose: 25.0 mg/kg/injection, schedule: Q01DX009 (ip), vehicle: saline 93 % of control and 105 % of control | dose: 25.0 mg/kg/injection, schedule: Q04DX002 (ip), vehicle: saline 97 % of control and 100 % of control | [2] 103 % of control | dose: 50.0 mg/kg/injection, schedule: Q01DX001 (ip), vehicle: saline 111 % of control | [17] 101 % of control and 104 % of control | dose: 50.0 mg/kg/injection, schedule: Q04DX002 (ip), vehicle: saline 97 % of control and 103 % of control | [3] 114 % of control | [4] 101 % of control | [18] 102 % of control | [19] 110 % of control

CCSC(SCC)C1OC(C)(C)OC1C1COC(C)(C)O1 (stereo not drawn)
inactive: [7] 103 % of control | [10] 96 % of control | [8] 103 % of control | [11] 94 % of control | [9] 103 % of control | [12] 91 % of control

O=S(=O)(C1=Cc2cccc3cccc1c23)c1ccccc1
inactive: dose: 100.0 mg/kg/injection, schedule: Q01DX001 (ip), vehicle: acetone 101 % of control | [18] 94 % of control | dose: 100.0 mg/kg/injection, schedule: Q04DX003 (ip), vehicle: acetone 105 % of control | dose: 200.0 mg/kg/injection, schedule: Q01DX001 (ip), vehicle: acetone 92 % of control | [20] 96 % of control | dose: 200.0 mg/kg/injection, schedule: Q04DX003 (ip), vehicle: acetone 105 % of control | dose: 400.0 mg/kg/injection, schedule: Q01DX001 (ip), vehicle: acetone 93 % of control | dose: 400.0 mg/kg/injection, schedule: Q01DX009 (ip), vehicle: saline 103 % of control | dose: 400.0 mg/kg/injection, schedule: Q04DX003 (ip), vehicle: acetone 97 % of control

COc1cc(Cc2cc(OC)c(OC)cc2[N+](=O)[O-])c([N+](=O)[O-])cc1OC
inactive: [19] 108 % of control | [21] 108 % of control | dose: 400.0 mg/kg/injection, schedule: Q04DX003 (ip), vehicle: saline 120 % of control

O=C(CNC(=O)OCc1ccccc1)NCC(=O)NC(Cc1c[nH]c2ccccc12)C(=O)OCc1ccccc1 (stereo not drawn)
inactive: [14] 100 % of control | [15] 101 % of control | [16] 94 % of control

CC1NCCC1CO (stereo not drawn)
inactive: [17] 104 % of control | [18] 97 % of control | [19] 96 % of control | [20] 94 % of control | [21] 104 % of control
